# Data reported in patent US20250270648A1, “MOLECULAR SIGNATURE FOR ASSESSING THE RESPONSIVENESS OF CANCER TO MITOCHONDRIA-TARGETED ANTIOXIDANTS” (UNIVERSITÉ CATHOLIQUE DE LOUVAIN, priority 2021, published 2025).
# Legend:
# [1] = test system: MDA-MB-436 breast cancer cells; assay: Seahorse oximetry, oxygen consumption rates (OCRs); assay type: cell-based, human; settings: MitoQ 100 nM, 48 h
# Description: (§1) Oxygen consumption rates (OCRs) were determined on a Seahorse XF96 bioenergetic analyzer using the XF cell Mito stress kit (Agilent Technologies®), according to manufacturer's recommendations. Briefly, MDA-MB-231 (10^4 cells/well), SkBr3 (10^4 cells/well), MDA-MB-436 (10^4 cells/well) or MCF10A (10^5 cells/well) were plated on XF96 culture plates 16 h before experiments in DMEM containing 10% FBS, and treated ±MitoQ for 48 h. On the day of analysis, culture media were replaced by DMEM containing 10 mM glucose, 2 mM glutamine, 1.85 g/L NaCl, 3 mg/L phenol red, pH 7.4. Cells were incubated for 1 h in a CO2-free incubator before analysis. Sequentially, basal OCR was acquired without treatment; ATP-linked OCR after the addition of 1 μM of ATP synthase inhibitor oligomycin; maximal OCR after mitochondrial potential disruption using 1 μM of ionophore carbonyl cyanide-4-(trifluoromethoxy) phenylhydrazone (FCCP); and non-mitochondrial OCR after the addition of 0.5 μM of Complex I inhibitor rotenone together with 0.5 μM of Complex III inhibitor antimycin A. All data were normalized by total protein content (Bio-Rad® Protein Assay; catalogue #5000006) measured right after oximetry. Mitochondrial OCRs (mtOCRs) were calculated by subtracting non-mitochondrial OCRs to the corresponding basal, maximal and ATP-linked OCRs.
# [2] = test system: MCF10A normal breast epithelial cells; assay: Seahorse oximetry, oxygen consumption rates (OCRs); assay type: cell-based, human; settings: MitoQ 100 nM, 48 h
# Description: as §1
# [3] = test system: MCF10A normal breast epithelial cells; assay: Mitochondrial superoxide, EPR with MitoTEMPO-H ±PEG-SOD2; assay type: cell-based, human; settings: MitoQ 100 nM, 48 h
# Description: Mitochondrial superoxide levels were determined using electron paramagnetic resonance (EPR) with MitoTEMPO-H as a specific mitochondrial superoxide probe ±PEG-SOD2 to specifically assign signals to mitochondrial superoxide. EPR measurements were performed using a Bruker EMX-Plus spectrometer, operating in X-band (9.85 GHz) and equipped with a PremiumX ultra low noise microwave bridge and a SHQ high sensitivity resonator. Typical settings were: microwave power: 20 mW; attenuation: 10 dB; modulation frequency: 100 kHz; modulation amplitude: 0.1 mT; time constant: 20.48 ms; conversion time: 22.58 ms; sweep width: 0.15 mT. Briefly, MDA-MB-231, SkBr3, MCF10A or MDA-MB-436 cells were treated ±MitoQ for 48 h, harvested and resuspended in PBS at 2×10^6 cells/mL. The experimental mixture was prepared with cell suspension, 1 mM DTPA and 150 μM MitoTEMPO-H. It was then aspirated into a gas-permeable polytetrafluoroethylene (PTFE) tubing that was placed in a quartz tube opened at both ends. The tube was directly inserted inside the EPR cavity that was heated at 310° K with air during all experiments. […] Net superoxide production was calculated by subtracting the double integration values of the […] with PEG-SOD2 to the control value at timepoint 15 min.
# [4] = test system: murine 4T1 breast cancer cells; assay: Cell viability, crystal violet; assay type: cell-based, mouse; settings: increasing doses of cisplatin ±100 nM MitoQ, 48 h
# Description: […] The solution was carefully removed and plates were washed twice with water. After drying protected by light, cells were resuspended in 50 μl DMSO and the plates were read with a Victor X4 plate reader (Perkin®).
# [5] = test system: primary breast tumors of MMTV-PyMT mice; assay: RT-qPCR of primary breast tumors; assay type: in vivo; settings: FEC + MitoQ 18 mg/kg daily oral; mouse transcripts; P<0.01; read-out: fold induction of SLC7A11, SERPINE1 and TXNRD1 (each independently)
# Description: (§2) Total mRNA from MDA-MB-231, SkBr3 and MDA-MB-436 cells treated ±MitoQ for 48 h was extracted using the NucleoSpin RNA Kit (Macherey-Nagel®). Total mRNA from primary tumors was extracted with Tri reagent (Molecular Research Center®, Cat #TR118). mRNAs were quantified by the Qubit BR dsRNA assay kit (Thermo Fisher Scientific®), and mRNA integrity was evaluated on an Agilent® 2100 Bioanalyzer with the RNA 6000 nano kit (Agilent®). It was reverse transcribed in complementary DNA using the High-Capacity cDNA Reverse Transcription Kit (Applied Biosystems®, cat #4368814) according to manufacturer's protocol. Complementary DNA (500 ng) was amplified by real time quantitative PCR (RT-qPCR) using the low ROX SYBR Master Mix dTTP Blue (Eurogentec®) and primers listed in Table 5 and Table 6 on a ViiA 7 Real-Time PCR System (Thermo Fisher Scientific®). Gene expression was normalized to β-actin gene expression.
# Female FVB/N-Tg(MMTV-PyMT)634Mul/J (MMTV-PyMT) mice that express the polyomavirus middle T antigen spontaneously develop orthotropic multifocal breast adenocarcinomas that spontaneously disseminate metastases to the lungs during mouse lifetime. […] They were sacrificed at 16 weeks-old, and the lungs insufflated with Indian ink for metastasis quantification as described above. […]
# [6] = test system: MDA-MB-231 and SkBr3 cells in culture; assay: RT-qPCR validation of mRNA biomarkers in vitro; assay type: cell-based, human; settings: MitoQ 500 nM, 48 h
# Description: as §2
# While EMT and sternness markers are usual suspects when testing antimetastatic strategies, it was decided to go deeper in the understanding of the molecular effects of MitoQ, and performed unbiased RNA sequencing (RNAseq) using cells treated for 48 h±MitoQ (500 nM). […] On independent samples upon the same conditions (including |log 2 Fold Change|>1 and P<0.01), RT-qPCR on the two cell lines validated all genes as potential biomarkers of human breast cancer cell response to MitoQ, to the exception of EID1, PEG10, FTH1 and NUPR1 (FIG. 12A-M and Table 7).
structure (smiles),measurement,setting,value
COC1=C(OC)C(=O)C(CCCCCCCCCC[P+](c2ccccc2)(c2ccccc2)c2ccccc2)=C(C)C1=O [MitoQ],"basal, maximal and ATP-linked OCRs",[1],repressed
same,OCRs,[2],reduced
same,mitochondrial superoxide production,[3],not affected
same,"cancer cell killing activity, cisplatin combined with MitoQ",[4],did not interfere
same,fold induction at 18 mg/kg,[5],≥ 2
same,ASNS transcript upregulated in response to MitoQ: Validated in vitro,[6],+ (Repressed or induced by ≥2-fold with P < 0.01 in both MDA-MB-231 and SkBr3 cells in culture.)
same,G6PD transcript upregulated in response to MitoQ: Validated in vitro,[6],+ (Repressed or induced by ≥2-fold with P < 0.01 in both MDA-MB-231 and SkBr3 cells in culture.)
same,PCK2 transcript upregulated in response to MitoQ: Validated in vitro,[6],+ (Repressed or induced by ≥2-fold with P < 0.01 in both MDA-MB-231 and SkBr3 cells in culture.)
same,PHGDH-1 transcript upregulated in response to MitoQ: Validated in vitro,[6],+ (Repressed or induced by ≥2-fold with P < 0.01 in both MDA-MB-231 and SkBr3 cells in culture.)
same,PSAT1 transcript upregulated in response to MitoQ: Validated in vitro,[6],+ (Repressed or induced by ≥2-fold with P < 0.01 in both MDA-MB-231 and SkBr3 cells in culture.)
same,SERPINE1 transcript upregulated in response to MitoQ: Validated in vitro,[6],+ (Repressed or induced by ≥2-fold with P < 0.01 in both MDA-MB-231 and SkBr3 cells in culture.)
same,SLC6A9 transcript upregulated in response to MitoQ: Validated in vitro,[6],+ (Repressed or induced by ≥2-fold with P < 0.01 in both MDA-MB-231 and SkBr3 cells in culture.)
same,SLC7A11 transcript upregulated in response to MitoQ: Validated in vitro,[6],+ (Repressed or induced by ≥2-fold with P < 0.01 in both MDA-MB-231 and SkBr3 cells in culture.)
same,TXNRD1 transcript upregulated in response to MitoQ: Validated in vitro,[6],+ (Repressed or induced by ≥2-fold with P < 0.01 in both MDA-MB-231 and SkBr3 cells in culture.)
